Drawing on ChEMBL document CHEMBL1134123, “Potent nonpeptide GnRH receptor antagonists derived from substituted indole-5-carboxamides and -acetamides bearing a pyridine side-chain terminus” (Bioorg Med Chem Lett, 2001), this text covers IC50 for 5 compounds.

For orientation: IC50 means the point on the concentration scale where inhibition reaches its midpoint. A higher IC50 goes with lower potency.

Assay [1] deals with T1, Gonadotropin-releasing hormone receptor (Rattus norvegicus, UniProt P30969).
T1 sequence (P30969 whole entry): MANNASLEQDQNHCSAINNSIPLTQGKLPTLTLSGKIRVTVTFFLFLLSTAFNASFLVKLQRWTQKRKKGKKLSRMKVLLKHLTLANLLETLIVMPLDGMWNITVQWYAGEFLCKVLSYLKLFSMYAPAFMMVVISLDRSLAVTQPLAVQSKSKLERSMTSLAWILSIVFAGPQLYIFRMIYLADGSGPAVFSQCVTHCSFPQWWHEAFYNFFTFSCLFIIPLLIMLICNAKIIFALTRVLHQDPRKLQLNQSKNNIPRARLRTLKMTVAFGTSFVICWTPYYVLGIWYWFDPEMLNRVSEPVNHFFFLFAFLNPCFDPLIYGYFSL
The assay is described as follows: Compound tested for the inhibition of GnRH-stimulated luteinizing hormone (LH) release in rat pituitary cells. It counts as functional, cell-based, Pituitary gland cell.

Assay [2] deals with Gonadotropin-releasing hormone receptor (Homo sapiens) (UniProt P30968). In words: Inhibition of [125I]buserelin binding to human Gonadotropin-releasing hormone receptor.
Assay [3] deals with T1, Gonadotropin-releasing hormone receptor. In words: Inhibition of GnRH-stimulated luteinizing hormone (LH) release in rat pituitary cells. Format: functional, cell-based, Pituitary gland cell.
The target is the same in assay [4]. The assay is described as follows: Inhibition of [125I]buserelin binding to rat Gonadotropin-releasing hormone receptor.
Assay [5] deals with T2, Gonadotropin-releasing hormone receptor (Homo sapiens, UniProt P30968).
T2 sequence (P30968 whole entry): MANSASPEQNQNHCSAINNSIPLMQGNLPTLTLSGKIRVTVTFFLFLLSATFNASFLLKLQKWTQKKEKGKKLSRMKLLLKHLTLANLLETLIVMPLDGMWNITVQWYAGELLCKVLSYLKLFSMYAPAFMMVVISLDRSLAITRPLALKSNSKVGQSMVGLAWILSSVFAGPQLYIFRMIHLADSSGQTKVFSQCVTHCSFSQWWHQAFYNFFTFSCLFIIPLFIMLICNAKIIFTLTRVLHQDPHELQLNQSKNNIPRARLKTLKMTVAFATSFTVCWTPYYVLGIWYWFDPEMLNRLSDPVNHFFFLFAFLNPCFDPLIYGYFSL
In words: Inhibition of GnRH-stimulated phosphatidylinositol (PI) hydrolysis in cloned chinese hamster ovary (CHO) cells expressing human GnRH receptor. It counts as functional, cell-based.

Assay [6] deals with T2, Gonadotropin-releasing hormone receptor. The assay is described as follows: Inhibition of [125I]buserelin binding to human Gonadotropin-releasing hormone receptor.

Turning to `Cc1cc(C)cc(-c2[nH]c3ccc(C(C)(C)C(=O)N4CCCC4)cc3c2CCNCCCCc2ccncc2)c1`, the 50% inhibitory concentration (IC50) in assay [1] was 0.34 µM; in assay [2], 0.0048 µM.
For the compound `CCN(CC)C(=O)c1ccc2[nH]c(-c3cc(C)cc(C)c3)c(CCNCCCCc3cccnc3)c2c1`, the IC50 in assay [3] was found to be 0.4 µM; in assay [4], 0.0006 µM; in assay [5], 0.19 µM; in assay [6], 0.023 µM.
Consider `CCN(C(=O)c1ccc2[nH]c(-c3cc(C)cc(C)c3)c(CCNCCCCc3cccnc3)c2c1)C1CCCCC1`, for which the IC50 was found to be 0.14 µM in assay [3], 0.0002 µM in assay [4], 0.016 µM in assay [5] and 0.0023 µM in assay [6].
For `Cc1cc(C)cc(-c2[nH]c3ccc(C(=O)N(CC(C)C)CC(C)C)cc3c2CCNCCCCc2ccncc2)c1`, in that order: 0.38 µM, 0.0006 µM, 0.08 µM and 0.0071 µM.
`Cc1cc(C)cc(-c2[nH]c3ccc(C(=O)N(CC(F)(F)F)CC(F)(F)F)cc3c2CCNCCCCc2ccncc2)c1`: the 50% inhibitory concentration (IC50) in assay [3] turned out to be 3.6 µM; in assay [4], 0.0006 µM; in assay [5], 0.091 µM; in assay [6], 0.036 µM.
